Measured values from patent US4271163A, “Novel 3,4-diaza-bicyclo[4.1.0]hept-2-en-5-ones, their preparation, and therapeutic agents containing these compounds” (BASF Aktiengesellschaft, priority 1978, dated 1981).
Converted amounts (≈) assume the structure as drawn. Like-named read-outs stand apart in the source and are kept apart here.

What was measured:
narcotized rats = assay: Anti-hypertensive effect on narcotized rats; format: in vivo, rat (male Sprague-Dawley); details: rats under urethane narcosis, intraperitoneal; for ED (20%): Rattus norvegicus, ip, dose which lowers the blood pressure by 20%, read-out: Reduction in blood pressure, ED 20%; for Reduction in blood pressure, R.A. (relative activity): dihydralazine = 1.00
Method: 3. Anti-hypertensive effect on narcotized rats.
To test the anti-hypertensive effect, the substances are administered intraperitoneally to groups of 3-5 male Sprague-Dawley rats weighing 240-280 g, under urethane narcosis ([…] given intraperitoneally).
The measurement of the blood pressure in the carotid artery is carried out by means of Statham transducers. The ED 20% is determined as the dose which lowers the mean carotid blood pressure by 20%.
(§1) The effective doses or effective concentrations were calculated from the linear relationships between the logarithm of the dose or concentration and the logarithm of the effect, by means of regression analysis.
(§2) Acetylsalicylic acid was used as the reference substance for the inhibition of thrombocyte aggregation and dihydralazine for the anti-hypertensive effect.

human thrombocytes = assay: Inhibition of the collagen-induced aggregation of human thrombocytes in vitro; format: cell-based; details: for EC50: 10 min, read-out: Inhibition of collagen-induced thrombocyte aggregation in vitro, EC 50%; for Inhibition of aggregation, R.A. (relative activity): acetylsalicylic acid = 1.00
Method: 1. Inhibition of the collagen-induced aggregation of human thrombocytes in vitro.
(§3) Thrombocyte-rich plasma is obtained by centrifuging venous citrate blood (300 g, 10 minutes duration at 4° C.). The photometric measurement of the thrombocyte aggregation is carried out with addition of MgCl2 (final concentration 10 millimoles/l) and of collagen Stago (final concentration 0.02 mg/ml) in a Born Mk 3 aggregometer. The maximum extinction change/sec is used as a measure of the aggregation.
The aggregation-inhibiting activity of the substances is tested after an incubation time of 10 minutes.
The EC 50% is taken to be the concentration causing 50% inhibition of aggregation.
as §1, §2

[1] = tested on: spontaneously hypertonic rats; assay: Anti-hypertensive effect on spontaneously hypertonic rats; format: in vivo, rat (male spontaneously hypertonic Okamoto); details: for ED (20%): Rattus norvegicus, 2 h, dose which lowers the blood pressure by 20% compared to the control group; for ED (20%) / Anti-hypertensive effect, R.A.: oral administration; for Anti-hypertensive effect, R.A.: dihydralazine = 1.00
Method: 4. Anti-hypertensive effect on spontaneously hypertonic rats.
The substances are administered orally to groups of 4-8 male spontaneously hypertonic Okamoto rats weighing 270-340 g. Before, and 2 hours after, the administration, the systolic blood pressure is measured non-surgically by means of piezo-electric crystal sensors.
The ED 20% is determined as the dose which lowers the systolic pressure by 20%, taking into account the values found with untreated control animals.
as §1, §2

rat thrombocytes = assay: Inhibition of the collagen-induced aggregation of rat thrombocytes ex vivo; format: in vivo, rat (male Sprague-Dawley); details: for ED (33%): Rattus norvegicus, read-out: Inhibition of thrombocyte aggregation, ED 33%; for Inhibition of thrombocyte aggregation, R.A. (relative activity): acetylsalicylic acid = 1.00; for Inhibition of thrombocyte aggregation after oral administration in vivo (in words): versus acetylsalicylic acid
Method: as §3
2. Inhibition of the collagen-induced aggregation of rat thrombocytes ex vivo.
The substances are administered orally to groups of 10-15 male Sprague-Dawley rat weighing 200-250 g. 1-4 hours after administration, blood is taken under ether narcosis and thrombocyte-rich plasma is obtained by centrifuging. The aggregation after addition of collagen is measured as indicated above. The ED 33% is determined as the dose which inhibits the collagen-induced thrombocyte aggregation by 33%.
as §1, §2

[2] = human thrombocytes in vitro, concentration which inhibits the collagen-induced aggregation by 50%, 10 minutes incubation
[3] = rats, oral administration, dose which inhibits the collagen-induced aggregation by 33%

| Structure (SMILES) | ED (20%) (narcotized rats) [mg/kg] | Reduction in blood pressure, R.A. (relative activity) (narcotized rats) | EC50 (human thrombocytes; [2]) [µg/mL] | Inhibition of aggregation, R.A. (relative activity) (human thrombocytes; human thrombocytes in vitro) | ED (20%) [1] [mg/kg] | Anti-hypertensive effect in spontaneously hypertonic rats after oral administration (in words) [1] | Anti-hypertensive effect, R.A. [1] | ED (33%) (rat thrombocytes; [3]) [mg/kg] | Inhibition of thrombocyte aggregation, R.A. (relative activity) (rat thrombocytes; rats, oral administration) | Inhibition of thrombocyte aggregation after oral administration in vivo (in words) (rat thrombocytes; rats) | EC50 (human thrombocytes; Homo sapiens) [µg/mL] | ED (33%) (rat thrombocytes; po) [mg/kg] |
| --- | --- | --- | --- | --- | --- | --- | --- | --- | --- | --- | --- | --- |
| O=C(Nc1ccc(C2=NNC(=O)C3CC23)cc1)C1CCCCC1 (centres unmarked) [Example 28, 2-(p-cyclohexylcarbonylaminophenyl)-3,4-diaza-bicyclo[4.1.0]-hept-2-en-5-one] | 0.415 | 0.81 | 5.09 (≈ 16.3 µM) | 97 |  |  |  |  |  |  |  |  |
| CC(=O)Nc1ccc(C2=NNC(=O)C3CC23)cc1 (centres unmarked) [Example 7, 2-(p-acetylaminophenyl)-3,4-diaza-bicyclo[4.1.0]hept-2-en-5-one] | 0.193 | 1.75 | 0.14 (≈ 0.576 µM) | 3530 | 8.65 | demonstrable | 0.79 | 30.7 | 4.36 | far surpasses the effect of acetylsalicylic acid |  |  |
| C/C=C/C(=O)Nc1ccc(C2=NNC(=O)C3CC23)cc1 (centres unmarked) [Example 29, 2-(p-crotonoylaminophenyl)-3,4-diaza-bicyclo[4.1.0]-hept-2-en-5-one] | 1.71 | 0.20 | 2.12 (≈ 7.87 µM) | 233 |  |  |  |  |  |  |  |  |
| CC(C)(CBr)C(=O)Nc1ccc(C2=NNC(=O)C3CC23)cc1 (centres unmarked) [Example 22, 2-(p-bromopivaloylaminophenyl)-3,4-diaza-bicyclo[4.1.0]hept-2-en-5-one] | 2.96 | 0.11 | 3.47 (≈ 9.53 µM) | 142 |  |  |  |  |  |  |  |  |
| CC1CC1C(=O)Nc1ccc(C2=NNC(=O)C3CC23)cc1 (centres unmarked) [Example 25, 2-[p-(2-methylcyclopropylcarbonylamino)-phenyl]-3,4-diaza-bicyclo[4.1.0]hept-2-en-5-one] | 0.649 | 0.52 | 1.8 (≈ 6.35 µM) | 274 |  |  |  |  |  |  |  |  |
| CCC(C)C(=O)Nc1ccc(C2=NNC(=O)C3CC23)cc1 (centres unmarked) [Example 18, 2-[p-(2-methylbutyrylamino)-phenyl]-3,4-diaza-bicyclo[4.1.0]hept-2-en-5-one] | 0.9 | 0.37 | 3.99 (≈ 14 µM) | 124 |  |  |  |  |  |  |  |  |
| O=C(Nc1ccc(C2=NNC(=O)C3CC23)cc1)C(Cl)Cl (centres unmarked) [Example 23, 2-(p-dichloroacetylaminophenyl)-3,4-diaza-bicyclo[4.1.0]hept-2-en-5-one] | 1.5 | 0.23 | 2.99 (≈ 9.58 µM) | 165 |  |  |  |  |  |  |  |  |
| CC(C)C(=O)Nc1ccc(C2=NNC(=O)C3CC23)cc1 (centres unmarked) [Example 16, 2-(p-isobutyrylaminophenyl)-3,4-diaza-bicyclo[4.1.0]hept-2-en-5-one] | 0.402 | 0.84 | 4.88 (≈ 18 µM) | 101 |  |  |  |  |  |  |  |  |
| NNc1nnc(NN)c2ccccc12 [Dihydralazine, reference compound] | 0.337 | 1.0 |  |  | 6.85 |  | 1.00 |  |  |  |  |  |
| CC(=O)Oc1ccccc1C(=O)O [Acetylsalicylic acid, reference compound] |  |  |  |  |  |  |  |  | 1.00 |  | 494 (≈ 2740 µM) | 134 |
| CC(Cl)(Cl)C(=O)Nc1ccc(C2=NNC(=O)C3CC23)cc1 (centres unmarked) [Example 24, 2-[p-(2,2-dichloropropionylamino)-phenyl]-3,4-diaza-bicyclo[4.1.0]hept-2-en-5-one] | 10 | 0.03 | 3.2 (≈ 9.81 µM) | 154 |  |  |  |  |  |  |  |  |
| C=CC(=O)Nc1ccc(C2=NNC(=O)C3CC23)cc1 (centres unmarked) [Example 14, 2-(p-acryloylaminophenyl)-3,4-diaza-bicyclo[4.1.0]hept-2-en-5-one] | 0.298 | 1.13 | 0.38 (≈ 1.49 µM) | 1310 |  |  |  |  |  |  |  |  |
| O=C(CCl)Nc1ccc(C2=NNC(=O)C3CC23)cc1 (centres unmarked) [Example 12, 2-(p-chloroacetylaminophenyl)-3,4-diaza-bicyclo[4.1.0]hept-2-en-5-one] | 0.299 | 1.13 | 0.95 (≈ 3.42 µM) | 518 |  |  |  |  |  |  |  |  |
| O=C(Nc1ccc(C2=NNC(=O)C3CC23)cc1)c1ccccc1 (centres unmarked) [Example 30, 2-(p-benzoylaminophenyl)-3,4-diaza-bicyclo[4.1.0]hept-2-en-5-one] | > 10 | < 0.03 | 6.01 (≈ 19.7 µM) | 82 |  |  |  |  |  |  |  |  |
| O=C(CCCCl)Nc1ccc(C2=NNC(=O)C3CC23)cc1 (centres unmarked) [Example 21, 2-[p-(4-chlorobutyrylamino)-phenyl]-3,4-diaza-bicyclo[4.1.0]hept-2-en-5-one] | 6.81 | 0.05 | 2.27 (≈ 7.42 µM) | 218 |  |  |  |  |  |  |  |  |
| O=CNc1ccc(C2=NNC(=O)C3CC23)cc1 (centres unmarked) [Example 10, 2-(p-formylaminophenyl)-3,4-diaza-bicyclo[4.1.0]hept-2-en-5-one] | 0.253 | 1.33 | 6.81 (≈ 29.7 µM) | 73 |  |  |  |  |  |  |  |  |
| O=C(Nc1ccc(C2=NNC(=O)C3CC23)cc1)C1CC1 (centres unmarked) [Example 13, 2-(p-cyclopropylcarbonylaminophenyl)-3,4-diaza-bicyclo[4.1.0]hept-2-en-5-one hemihydrate] | 0.0465 | 7.25 | 5.57 | 89 | 2.78 | demonstrable | 2.46 | 2.5 | 53.60 | far surpasses the effect of acetylsalicylic acid |  |  |
| CCCC(=O)Nc1ccc(C2=NNC(=O)C3CC23)cc1 (centres unmarked) [Example 15, 2-(p-butyrylaminophenyl)-3,4-diaza-bicyclo[4.1.0]hept-2-en-5-one] | 1.88 | 0.18 | 1.87 (≈ 6.89 µM) | 264 |  |  |  |  |  |  |  |  |
| CC1(C(=O)Nc2ccc(C3=NNC(=O)C4CC34)cc2)CC1(Cl)Cl (centres unmarked) [Example 26, 2-[p-(2,2-dichloro-1-methylcyclopropylcarbonylamino)-phenyl]-3,4-diaza-bicyclo[4.1.0]hept-2-en-5-one] | 0.786 | 0.43 | 1.91 (≈ 5.42 µM) | 259 |  |  |  |  |  |  |  |  |
| O=C(Nc1ccc(C2=NNC(=O)C3CC23)cc1)C1CCC1 (centres unmarked) [Example 27, 2-(p-cyclobutylcarbonylaminophenyl)-3,4-diaza-bicyclo[4.1.0]hept-2-en-5-one] | 0.398 | 0.85 | 1.42 (≈ 5.01 µM) | 348 |  |  |  |  |  |  |  |  |
| O=C(CCCl)Nc1ccc(C2=NNC(=O)C3CC23)cc1 (centres unmarked) [Example 19, 2-[p-(3-chloropropionylamino)-phenyl]-3,4-diaza-bicyclo[4.1.0]hept-2-en-5-one] | 0.688 | 0.49 | 3.52 (≈ 12.1 µM) | 140 |  |  |  |  |  |  |  |  |
